Data taken from PMC4019449 (Annals of Clinical and Translational Neurology, 2014).

Columns and labels:
[1] = molecular target: GluN1/GluN2A-N615K receptors (Homo sapiens, UniProt Q05586+Q12879, N615K); type: cell-based
[2] = molecular target: T1, GluN1/GluN2A-L812M receptors (Homo sapiens, UniProt Q05586+Q12879, L812M); type: cell-based
[3] = molecular target: GluN1/GluN2A receptors (Homo sapiens, UniProt Q05586+Q12879); assay: Screening of FDA-approved NMDAR antagonists, TEVC oocyte recordings, wild type; type: cell-based
[4] = molecular target: T1, GluN1/GluN2A-L812M receptors; assay: Agonist potency, TEVC recordings from Xenopus laevis oocytes, L812M mutant; type: cell-based
[5] = system: animal models of epilepsy; settings: wide range of animal models of epilepsy; cited from earlier work
[6] = system: seizures of the proband; assay: Antiepileptic treatment of the proband; type: in vivo, human
[7] = used in children; cited from earlier work
[8] = read-out: percent maximal inhibition

`NC12CC3CC(CC(C3)C1)C2` [Amantadine] gave an IC50 [1] of 458 ± 25 µM, an inhibition at 1000 µM [1, 8] of 76% and an IC50 [2] of 113 ± 5.1 µM. The inhibition at 1000 µM [2, 8] was 88%, the IC50 [3] was 110 ± 11 µM and the inhibition at 1000 µM [3, 8] was 94%.
With `COc1ccc2c(c1)[C@]13CCCC[C@@H]1[C@H](C2)N(C)CC3` [Dextromethorphan] the IC50 [1] was 9 ± 1.3 µM, the “enhanced potency on N615K-containing NMDARs in comparison to wild-type NMDARs” value ([1]; N615K compared with wild type) was “twofold” and the inhibition at 300 µM [1, 8] was 92%. The IC50 [2] was 33 ± 4.8 µM, the inhibition at 300 µM [2, 8] was 91% and the inhibition at 300 µM [3, 8] was 88%.
Compound `CN1CC[C@@]23CCCC[C@@H]2[C@@H]1Cc1ccc(O)cc13` [Dextrorphan] has an IC50 [1] of 0.34 ± 0.06 µM, an inhibition at 30 µM [1, 8] of 96% and an IC50 [2] of 6.1 ± 1.3 µM. The inhibition at 30 µM [2, 8] was 85%, the IC50 [3] was 1.9 ± 0.3 µM and the inhibition at 30 µM [3, 8] was 92%.
With `NCC(=O)O` [Glycine] the “reduction in EC50 (increased potency), GluN2A-L812M vs wild type” value ([4]; L812M compared with wild type) was “eightfold” and the EC50 ([4]; read-out: Glycine EC50, L812M, in the presence of 100 μmol/L glutamate, -40 mV) was 0.14 ± 0.01 µM.
For `CC12CC3CC(C)(C1)CC(N)(C3)C2` [Memantine], the anticonvulsant effects [5] is given as “anticonvulsant effects”, the cognitive ability ([6]; memantine treatment) is given as “remained unchanged” and the “interictal EEG after treatment” value ([6]; postmemantine EEG, wakefulness and sleep) is given as “no asymmetries or epileptiform discharges”. The myoclonic jerks ([6]; upon memantine treatment) was “ceased”, the side effects ([6]; ~0.5 mg/kg per day) was “without side effects” and the toxicity in children [7] was “without toxicity”. It also gave an inhibition at 100 µM [1, 8] of 69%, an inhibition at 100 µM [2, 8] of 87% and an inhibition at 100 µM [3, 8] of 89%.
